How the values were obtained:
[1] = system: C. albicans
[2] = system: C. albicans (ATCC 66027); assay: Microbicidal activity of iodate/iodide silicone tablet formulations in inoculated BHI, pH 4.0; assay type: cell-based; conditions: together with iodate threshold
Experimental: Experiments were performed to optimize formulations used in fabricating the inventive device formulated with silicone elastomer. […] The polymer was allowed to cure with dibutyl tin dilaurate catalyst additions, and then devices were prepared (0.6 cm diameter 0.3 mm thick) using “hole punch” tablets from the disc shaped device to test for microbicidal activity using C. albicans inoculated BHI. […] Tablets obtained from the fabricated device were suspended in the inoculum at 1 tablet/ml. At varying intervals, aliquots of the inoculum, incubated at 35° C. in air, were subcultured to sheep blood agar plates and incubated for an additional 24 hours at 35° C. in air to determine the effect of the varying formulations on the C. albicans inoculums.

SMILES	elemental iodine concentrations required to affect microbial killing [1] [%]	critical media concentration of iodide necessary to effect C. albicans killing [2] [mM]
II [elemental iodine]	< 0.01	
I [iodide]		≥ 0.5

Reference: patent US6939569B1, “Medical device having anti-infective and contraceptive properties” (Oxibio, Inc., priority 1998, dated 2005)
